Data reported in patent US20220041687A1, “A GROUP OF CHIMERIC ANTIGEN RECEPTORS (CARS)” (ST. ANNA KINDERKREBSFORSCHUNG, priority 2018, published 2022).
pKd: −log10 of the molar value. Like-named read-outs stand apart in the source and are kept apart here.

Experiments:
[1] = tested on: Jurkat T cells expressing tEGFR; test: T cell activation by rcSso7d-based CARs (luciferase-based cytotoxicity assay, IFN-γ ELISA), Example 2; conditions: primary human T cells, 4 hours, E:T 2:1; for cytotoxicity: binder fused to "Ser" CAR backbone (monovalent interaction)
Method: Luciferase-expressing tumour cells were co-cultured with CAR T cells at an E:T cell ratio of 2:1 with 10,000 target cells/well in white round-bottom 96 well plates (Sigma Aldrich) for 4 hours at 37° C. in cytotoxicity assay medium, consisting of phenol-free RPMI (Thermo Scientific), 10% FCS, 1% L-Glutamine (Thermo Scientific) and 1% penicillin-streptomycin. Finally, remaining living cells were quantified by determination of the residual luciferase activity of the co-culture. After equilibration to room temperature for 10 minutes, luciferin was added to the cell suspension (150 μg/mL final concentration; Perkin Elmer) and luciferase activity was measured 20 minutes later using the ENSPIRE Multimode plate reader. The percentage of specific lysis was determined with the following formula:
% specific lysis=100−((RLU from well with effector and target cell co-culture)/(RLU from well with target cells only)×100)).
Cytokine secretion of primary CAR T cells was assessed by co-cultivation with target cells at E:T ratios of 1:1 or 2:1 in flat-bottom 96 well plates for 4 hours or 24 hours at 37° C. In some experiments, released cytokines were quantified in the supernatants from the co-culture experiments for determining cytotoxicity. The supernatants were centrifuged (1600 rpm, 7 minutes, 4° C.) to remove remaining cells and debris and were subsequently frozen at −80° C. For analysis of secreted IFN-γ, ELISA was performed using the Human IFN gamma ELISA Ready-SET-Go!® kit (eBioscience) according to the manufacturer's instructions. Measurements were conducted using the ENSPIRE Multimode plate reader.

human EGFR [2] = test: Binding affinities of rcSso7d-based antigen binding moieties (titration on tEGFR Jurkat T cells, SPR on hEGFR-Fc); conditions: comparison in words; own values only in FIG. 2; read-out: affinity of the binding moiety, stated as comparable to that of scFv 4D5-5
Method: Jurkat T cells were engineered to express high levels of the respective tumour antigen. […] After washing in PBS, cells were resuspended in PBS containing 0.1% BSA (Sigma Aldrich) and incubated with varying concentrations of the binder proteins fused to sfGFP in order to determine the affinities of the antigen binding moieties towards the respective tumour antigen. After incubation for 1 hour at 4° C. while shaking, plates were centrifuged (450 g, 7 minutes, 4° C.), the supernatant was discarded and cells were acquired with a BD LSRFortessa. Cells were kept on ice to avoid endocytosis. The Kd was obtained by curve fitting using Microsoft Excel (Microsoft Corporation).
SPR experiments were performed with a Biacore T200 instrument (GE Healthcare). All experiments were conducted in degassed and filtered PBS, pH 7.4, containing 0.1% BSA and 0.05% Tween-20 (Merck Millipore), at 25° C. hEGFR-Fc (R&D) was immobilized on a Protein A sensor chip (GE Healthcare) at a flow rate of 10 μL/min for 60 seconds at a concentration 6.67 μg/mL. To determine the affinity of rcSso7d-based antigen binding moieties, five concentrations (depending on the expected Kd of the antigen binding moiety) of the respective protein were injected at a flow rate of 30 μL/min for 15 seconds in the single-cycle kinetic mode, followed by a dissociation step (30 seconds). […]

human EGFR [3] = conditions: Traxlmayr et al., J Biol Chem. 2016; cited from earlier work
[4] = tested on: Jurkat T cells expressing tHER2; test: Functional screening of affibody-based CARs, luciferase-based cytotoxicity assay, Example 4; type: cell-based, human; conditions: affibody variant in CAR backbone 8ser-BB-FKBP (36V)-3z; 10 nM AP20187 or DMSO; 4 hours, E:T 2:1
Method: Luciferase-expressing tumour cells were co-cultured with CAR T cells at an E:T cell ratio of 2:1 with 10,000 target cells/well in white round-bottom 96 well plates (Sigma Aldrich) for 4 hours at 37° C. in cytotoxicity assay medium, consisting of phenol-free RPMI (Thermo Scientific), 10% FCS, 1% L-Glutamine (Thermo Scientific) and 1% penicillin-streptomycin. Finally, remaining living cells were quantified by determination of the residual luciferase activity of the co-culture. After equilibration to room temperature for 10 minutes, luciferin was added to the cell suspension (150 μg/mL final concentration) and luciferase activity was measured 20 minutes later using the ENSPIRE Multimode plate reader. The percentage of specific lysis was calculated with the following formula:
Dimerization of transgenes was induced prior to co-cultivation experiments. […] The homodimerization agent AP20187 was diluted in cell culture medium and was added at 10 nM final concentration. Addition of the vehicle control DMSO at the same concentration served as control. Cells were incubated at 37° C. for 30 minutes to ensure efficient dimerization of transgenes and subsequently used for in vitro experiments.

With “E11.4.1-G25A: alanine mutant G25A of rcSso7d E11.4.1, EGFR binding moiety” the cytotoxicity [1] was “triggered potent cytotoxicity also upon monovalent interaction”.
With “E11.4.1-G32A: low affinity alanine mutant G32A of rcSso7d E11.4.1, EGFR binding moiety with the lowest tested affinity” the “T cell activation in response to target cells” value ([1]; binder fused to cysteine-containing CAR backbone ("Cys", bivalent)) was “efficiently triggered T cell activation”, the “T cell activation in response to target cells” value ([1]; binder fused to serine-containing CAR backbone ("Ser", monovalent)) was “did not or only poorly trigger the T cells” and the pKd (human EGFR [2]) was roughly 5.96.
For “rcSso7d E11.4.1: well characterized rcSso7d-based antigen binding moiety which binds to human EGFR (Traxlmayr et al.) [reference compound]”, the pKd (human EGFR [3]) is listed as 7.72 and the cytotoxicity [1] is listed as “triggered potent cytotoxicity also upon monovalent interaction”.
For “zHER2-WT: high-affinity HER2 affibody with framework mutations N23A and S33K”, the “capacity to trigger cytotoxicity in T cells in presence or absence of AP20187” value [4] was “triggered efficient target cell lysis independent of presence of AP20187”.
